From patent US6265426A, “Triazole derivatives” (Hoffmann-La Roche Inc., priority 1999, dated 2001)
pIC50: −log10 of the molar value. Where a name gives a salt, the structure may show the parent alone.

molecular target: T1, NMDA receptor (Rattus norvegicus, UniProt P35439+Q00960); assay: [3H] Compound A (R-(R*,S*)]-α-(4-Hydroxy-phenyl)-β-methyl-4-(phenyl-methyl)-1-piperidine propanol) binding, displacement on rat brain membranes (NMDA receptor subtype); settings: displacement of 5 nM [3H] Compound A, rat whole brain minus cerebellum and medulla oblongata membranes, pH 7.4, 2 hours at 4° C.
T1 construct: Membranes were prepared by homogenization of the whole brain minus cerebellum and medulla oblongata; from tissue; host or cells: rat whole brain minus cerebellum and medulla oblongata, membranes
Procedure: ^3 H R-(R*,S*)]-α-(4-Hydroxy-phenyl)-β-methyl-4-(phenyl-methyl)-1-piperidine propanol (compound A) binding
Male Fullinsdorf albino rats weighing between 150-200 g were used. Membranes were prepared by homogenization of the whole brain minus cerebellum and medulla oblongata with a Polytron (10.000 rpm, 30 seconds), in 25 volumes of a cold Tris-HCl 50 mM, EDTA 10 mM, pH 7.1 buffer. The homogenate was centrifuged at 48.000 g for 10 minutes at 4° C. The pellet was resuspended using the Polytron in the same volume of buffer and the homogenate was incubated at 37° C. for 10 minutes. After centrifugation the pellet was homogenized in the same buffer and frozen at -80° C. for at least 16 hours but not more than 10 days. For the binding assay the homogenate was thawed at 37° C., centrifuged and the pellet was washed three times as above in a Tris-HCl 5 mM, pH 7.4 cold buffer. The final pellet was resuspended in the same buffer and used at a final concentration of 200 μg of protein/ml.
Compound A binding experiments were performed using a Tris-HCl 50 mM, pH 7.4 buffer. For displacement experiments 5 nM of Compound A were used and non specific binding was measured using 10 μM of tetrahydroisoquinoline and usually it accounts for 10% of the total. The incubation time was 2 hours at 4° C. and the assay was stopped by filtration on Whatmann GF/B glass fiber filters (Unifilter-96, Packard, Zutrich, Switzerland). The filters were washed 5 times with cold buffer. The radioactivity on the filter was counted on a Packard Top-count microplate scintillation counter after addition of […] of microscint 40 (Canberra Packard S.A., Zurich, Switzerland).
The effects of compounds were measured using a minimum of 8 concentrations and repeated at least once. The pooled normalized values were analyzed using a non-linear regression calculation program which provide IC50 with their relative upper and lower 95% confidence limits (RS1, BBN, USA). The IC50 value refers to the concentration of a compound needed to give 50% inhibition, i.e., the concentration at which 50% of the ligands bonded to the recept or are displaced.
Concentrations higher than 10 μM were not tested.

T1 sequence (Q00960 27-1482, other chains not shown): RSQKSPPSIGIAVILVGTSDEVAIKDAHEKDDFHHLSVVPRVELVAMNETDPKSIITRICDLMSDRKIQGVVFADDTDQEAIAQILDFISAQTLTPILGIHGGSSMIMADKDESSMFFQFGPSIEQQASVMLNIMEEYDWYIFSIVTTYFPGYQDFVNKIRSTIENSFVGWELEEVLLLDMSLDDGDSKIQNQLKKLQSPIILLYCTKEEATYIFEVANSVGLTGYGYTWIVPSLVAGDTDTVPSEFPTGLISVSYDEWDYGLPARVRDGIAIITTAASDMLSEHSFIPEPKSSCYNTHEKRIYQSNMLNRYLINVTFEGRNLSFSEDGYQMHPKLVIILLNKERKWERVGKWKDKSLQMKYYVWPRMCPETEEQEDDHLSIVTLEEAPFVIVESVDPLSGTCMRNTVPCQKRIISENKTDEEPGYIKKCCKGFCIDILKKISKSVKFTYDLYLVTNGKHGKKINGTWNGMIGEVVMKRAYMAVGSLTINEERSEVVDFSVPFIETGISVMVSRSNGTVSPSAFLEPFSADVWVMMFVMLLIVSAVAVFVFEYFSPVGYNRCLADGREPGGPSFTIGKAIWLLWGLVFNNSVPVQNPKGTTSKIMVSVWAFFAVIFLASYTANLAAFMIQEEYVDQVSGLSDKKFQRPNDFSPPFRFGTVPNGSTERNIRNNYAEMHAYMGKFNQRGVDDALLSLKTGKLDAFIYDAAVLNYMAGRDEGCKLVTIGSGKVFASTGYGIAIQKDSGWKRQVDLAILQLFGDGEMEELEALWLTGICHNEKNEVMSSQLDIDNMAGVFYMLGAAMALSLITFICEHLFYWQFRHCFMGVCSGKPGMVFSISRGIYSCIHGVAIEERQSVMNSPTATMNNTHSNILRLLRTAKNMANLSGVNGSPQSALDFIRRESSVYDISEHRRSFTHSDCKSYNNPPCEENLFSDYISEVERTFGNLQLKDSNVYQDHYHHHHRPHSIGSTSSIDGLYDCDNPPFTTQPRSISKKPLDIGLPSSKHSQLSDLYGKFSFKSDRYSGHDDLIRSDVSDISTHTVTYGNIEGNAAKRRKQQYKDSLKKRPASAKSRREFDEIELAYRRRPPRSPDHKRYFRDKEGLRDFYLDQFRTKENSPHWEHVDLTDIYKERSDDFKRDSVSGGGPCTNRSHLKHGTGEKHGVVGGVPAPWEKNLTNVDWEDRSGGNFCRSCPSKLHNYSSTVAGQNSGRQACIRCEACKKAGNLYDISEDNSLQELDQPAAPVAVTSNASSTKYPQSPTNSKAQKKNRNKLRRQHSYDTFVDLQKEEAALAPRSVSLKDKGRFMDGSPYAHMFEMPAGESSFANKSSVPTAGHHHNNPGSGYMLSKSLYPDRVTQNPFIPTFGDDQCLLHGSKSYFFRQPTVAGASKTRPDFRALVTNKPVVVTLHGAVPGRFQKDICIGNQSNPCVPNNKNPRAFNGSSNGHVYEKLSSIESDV

First: c1cc(CN2CCCC2)cc(-c2n[nH]c(-c3ccc4ccccc4c3)n2)c1 [Example 25, 5-Naphthalen-2-yl-3-(3-pyrrolidin-1-ylmethyl-phenyl)-1H-[1,2,4]triazole hydrochloride]
Second: COc1ccc(-c2nc(-c3cccc(CN4CCCC4)c3)n[nH]2)cc1 [Example 51, 5-(4-Methoxy-phenyl)-3-(3-pyrrolidin-1-ylmethyl-phenyl)-1H-[1,2,4]triazole hydrochloride]
The pIC50 of the first is 1.24 log units lower: 6.00 for the first, 7.24 for the second.

Compared with Clc1ccc(-c2nc(-c3cccc(CN4CCCC4)c3)n[nH]2)cc1 [Example 49, 5-(4-Chloro-phenyl)-3-(3-pyrrolidin-1-ylmethyl-phenyl)-1H-[1,2,4]triazole hydrochloride], COc1ccc(-c2nc(-c3cccc(CN)c3)n[nH]2)cc1 [Example 73, 3-[5-(4-Methoxy-phenyl)-1H-[1,2,4]triazol-3-yl]-benzylamine hydrochloride] is 1.02 log units higher in pIC50: 7.06 for the first, 8.08 for the second. The second is the more potent here.

In the case of CCN(CC)Cc1cccc(-c2n[nH]c(-c3ccc(OC)cc3)n2)c1 [Example 52, Diethyl-{3-[5-(4-methoxy-phenyl)-1H-[1,2,4]triazol-3-yl]-benzyl}-amine hydrochloride], the pIC50 was 6.48.
